Test results as given in ChEMBL document CHEMBL4825673, “Total and Semisyntheses of Polymyxin Analogues with 2-Thr or 10-Thr Modifications to Decipher the Structure-Activity Relationship and Improve the Antibacterial Activity” (J Med Chem, 2021).
Converted amounts (≈) assume the structure as drawn.

Tests used:
Format in all cases: functional
Conditions in all cases: read-out: MIC100
Escherichia coli [1] = assay: Antibacterial activity against Escherichia coli ECO+14-2 assessed as inhibition of bacterial growth incubated for 24 hrs by broth microdilution method
Acinetobacter baumannii [2] = assay: Antibacterial activity against Acinetobacter baumannii ABA15-5 assessed as inhibition of bacterial growth incubated for 24 hrs by broth microdilution method
Klebsiella pneumoniae [3] = assay: Antibacterial activity against Klebsiella pneumoniae KPN+14-10 assessed as inhibition of bacterial growth incubated for 24 hrs by broth microdilution method
Pseudomonas aeruginosa [4] = assay: Antibacterial activity against Pseudomonas aeruginosa ATCC 27853 assessed as inhibition of bacterial growth incubated for 24 hrs by broth microdilution method
Pseudomonas aeruginosa [5] = assay: Antibacterial activity against Pseudomonas aeruginosa PAE15-3 assessed as inhibition of bacterial growth incubated for 24 hrs by broth microdilution method
Moraxella catarrhalis [6] = assay: Antibacterial activity against Moraxella catarrhalis BCA15-3 assessed as inhibition of bacterial growth incubated for 24 hrs by broth microdilution method
Acinetobacter baumannii [7] = assay: Antibacterial activity against Acinetobacter baumannii AR15-4 assessed as inhibition of bacterial growth incubated for 24 hrs by broth microdilution method
Pseudomonas aeruginosa [8] = assay: Antibacterial activity against Pseudomonas aeruginosa PAE15-8 assessed as inhibition of bacterial growth incubated for 24 hrs by broth microdilution method
Klebsiella pneumoniae [9] = assay: Antibacterial activity against Klebsiella pneumoniae KR15-2 assessed as inhibition of bacterial growth incubated for 24 hrs by broth microdilution method
Pseudomonas aeruginosa [10] = assay: Antibacterial activity against Pseudomonas aeruginosa PAE15-14 assessed as inhibition of bacterial growth incubated for 24 hrs by broth microdilution method
Pseudomonas aeruginosa [11] = assay: Antibacterial activity against Pseudomonas aeruginosa assessed as inhibition of bacterial growth incubated for 24 hrs by broth microdilution method
Acinetobacter baumannii [12] = assay: Antibacterial activity against Acinetobacter baumannii ABA15-4 assessed as inhibition of bacterial growth incubated for 24 hrs by broth microdilution method
Klebsiella pneumoniae [13] = assay: Antibacterial activity against Klebsiella pneumoniae KPN+14-8 assessed as inhibition of bacterial growth incubated for 24 hrs by broth microdilution method
Pseudomonas aeruginosa [14] = assay: Antibacterial activity against Pseudomonas aeruginosa PR15-1 assessed as inhibition of bacterial growth incubated for 24 hrs by broth microdilution method
Acinetobacter baumannii [15] = assay: Antibacterial activity against Acinetobacter baumannii assessed as inhibition of bacterial growth incubated for 24 hrs by broth microdilution method
Escherichia coli [16] = assay: Antibacterial activity against Escherichia coli ECO+14-3 assessed as inhibition of bacterial growth incubated for 24 hrs by broth microdilution method
Acinetobacter baumannii [17] = assay: Antibacterial activity against Acinetobacter baumannii ABA15-6 assessed as inhibition of bacterial growth incubated for 24 hrs by broth microdilution method
Moraxella catarrhalis [18] = assay: Antibacterial activity against Moraxella catarrhalis BCA14-7 assessed as inhibition of bacterial growth incubated for 24 hrs by broth microdilution method
Klebsiella pneumoniae [19] = assay: Antibacterial activity against Klebsiella pneumoniae assessed as inhibition of bacterial growth incubated for 24 hrs by broth microdilution method
Escherichia coli [20] = assay: Antibacterial activity against Escherichia coli ECO-14-2 assessed as inhibition of bacterial growth incubated for 24 hrs by broth microdilution method
Moraxella catarrhalis [21] = assay: Antibacterial activity against Moraxella catarrhalis assessed as inhibition of bacterial growth incubated for 24 hrs by broth microdilution method
Pseudomonas aeruginosa [22] = assay: Antibacterial activity against Pseudomonas aeruginosa PAO1 assessed as inhibition of bacterial growth incubated for 24 hrs by broth microdilution method
Escherichia coli [23] = assay: Antibacterial activity against Escherichia coli assessed as inhibition of bacterial growth incubated for 24 hrs by broth microdilution method
Pseudomonas aeruginosa [24] = assay: Antibacterial activity against Pseudomonas aeruginosa PAE15-5 assessed as inhibition of bacterial growth incubated for 24 hrs by broth microdilution method

Compound | MIC (Escherichia coli [1]) [µg/mL] | MIC (Acinetobacter baumannii [2]) [µg/mL] | MIC (Klebsiella pneumoniae [3]) [µg/mL] | MIC (Pseudomonas aeruginosa [4]) [µg/mL] | MIC (Pseudomonas aeruginosa [5]) [µg/mL] | MIC (Moraxella catarrhalis [6]) [µg/mL] | MIC (Acinetobacter baumannii [7]) [µg/mL] | MIC (Pseudomonas aeruginosa [8]) [µg/mL] | MIC (Klebsiella pneumoniae [9]) [µg/mL] | MIC (Pseudomonas aeruginosa [10]) [µg/mL] | MIC (Pseudomonas aeruginosa [11]) [µg/mL] | MIC (Acinetobacter baumannii [12]) [µg/mL] | MIC (Klebsiella pneumoniae [13]) [µg/mL] | MIC (Pseudomonas aeruginosa [14]) [µg/mL] | MIC (Acinetobacter baumannii [15]) [µg/mL] | MIC (Escherichia coli [16]) [µg/mL] | MIC (Acinetobacter baumannii [17]) [µg/mL] | MIC (Moraxella catarrhalis [18]) [µg/mL] | MIC (Klebsiella pneumoniae [19]) [µg/mL] | MIC (Escherichia coli [20]) [µg/mL] | also measured
CCCCCc1ccc(CN[C@@H](CCN)C(=O)N[C@H](C(=O)N[C@@H](CCN)C(=O)N[C@H]2CCNC(=O)[C@H]([C@@H](C)O)NC(=O)[C@H](CCN)NC(=O)[C@H](CCN)NC(=O)[C@H](CC(C)C)NC(=O)[C@@H](Cc3ccccc3)NC(=O)[C@H](CCN)NC2=O)[C@@H](C)O)cc1 | 1 (≈ 0.817 µM) | 0.25 (≈ 0.204 µM) | 2 (≈ 1.63 µM) | 0.25 (≈ 0.204 µM) | 0.5 (≈ 0.409 µM) | 1 (≈ 0.817 µM) | 0.25 (≈ 0.204 µM) | 0.5 (≈ 0.409 µM) | 1 (≈ 0.817 µM) | 0.5 (≈ 0.409 µM) | 0.25 (≈ 0.204 µM) | 0.5 (≈ 0.409 µM) | 4 (≈ 3.27 µM) | 0.5 (≈ 0.409 µM) | 0.25 (≈ 0.204 µM) | 0.5 (≈ 0.409 µM) | 0.5 (≈ 0.409 µM) | 8 (≈ 6.54 µM) | 1 (≈ 0.817 µM) | 0.5 (≈ 0.409 µM) | MIC (Moraxella catarrhalis [21]): 8 µg/mL (≈ 6.54 µM); MIC (Pseudomonas aeruginosa [22]): 2 µg/mL (≈ 1.63 µM); MIC (Escherichia coli [23]): 0.5 µg/mL (≈ 0.409 µM); MIC (Pseudomonas aeruginosa [24]): 0.5 µg/mL (≈ 0.409 µM)
CC[C@H](C)CCCCC(=O)N[C@@H](CCN)C(=O)N[C@H](C(=O)N[C@@H](CCN)C(=O)N[C@H]1CCNC(=O)[C@H]([C@@H](C)O)NC(=O)[C@H](CCN)NC(=O)[C@H](CCN)NC(=O)[C@H](CC(C)C)NC(=O)[C@@H](Cc2ccccc2)NC(=O)[C@H](CCN)NC1=O)[C@@H](C)OC(=O)[C@@H](N)Cc1ccc(O)cc1 | 2 (≈ 1.46 µM) | 0.06 (≈ 0.0439 µM) | 2 (≈ 1.46 µM) | 0.125 (≈ 0.0915 µM) | 0.5 (≈ 0.366 µM) | 1 (≈ 0.732 µM) | 0.125 (≈ 0.0915 µM) | 0.5 (≈ 0.366 µM) | 4 (≈ 2.93 µM) | 0.25 (≈ 0.183 µM) | 0.125 (≈ 0.0915 µM) | 0.06 (≈ 0.0439 µM) | 4 (≈ 2.93 µM) | 0.5 (≈ 0.366 µM) | 0.03 (≈ 0.022 µM) | 0.25 (≈ 0.183 µM) | 0.03 (≈ 0.022 µM) | 32 (≈ 23.4 µM) | 2 (≈ 1.46 µM) | 0.25 (≈ 0.183 µM) | MIC (Moraxella catarrhalis [21]): > 32 µg/mL; MIC (Pseudomonas aeruginosa [22]): 1 µg/mL (≈ 0.732 µM); MIC (Escherichia coli [23]): 0.25 µg/mL (≈ 0.183 µM); MIC (Pseudomonas aeruginosa [24]): 0.25 µg/mL (≈ 0.183 µM)
